In PubChem BioAssay AID342 (DTP/NCI, 2004):
Values joined by “and” are separate entries in the source; they are usually repeats but may differ in a detail not shown here. Identical values can stand only once.

Test system: Swiss mice, Sarcoma 180 sc, mean tumor weight T/C
Assay: NCI In Vivo Anticancer Drug Screen. Data for tumor model Sarcoma 180 (subcutaneous) in Swiss mice
Conditions: endpoint: mean tumor weight, higher = larger tumour
Protocol: The antitumor activity of compounds was measured in mice bearing transplantable tumors. Survival or tumor size were measured and the results are expressed as the measurement made in the treated group (T) divided by the measurement made in the vehicle treated control group (C). The tumor model used in this assay is Sarcoma 180 (subcutaneous) in Swiss mice

[1] = dose: 18.0 mg/kg/injection, schedule: Q01DX007 (ip), vehicle: carboxymethylcellulose (CMC)

## CC12CCC3C(CCC4CC=CCC43C)C1CCC2=O (configuration not stated)
dose: 31.0 mg/kg/injection, schedule: Q01DX007 (sc), vehicle: steriod suspending solution
  T/C: 102 % of control
dose: 62.5 mg/kg/injection, schedule: Q01DX007 (sc), vehicle: steriod suspending solution
  T/C: 105 % of control
dose: 125.0 mg/kg/injection, schedule: Q01DX007 (sc), vehicle: steriod suspending solution
  T/C: 107 % of control and 123 % of control
dose: 250.0 mg/kg/injection, schedule: Q01DX007 (sc), vehicle: steriod suspending solution
  T/C: 95 % of control and 96 % of control

## N=[N+]=CC(=O)OCC(N)C(=O)O (configuration not stated)
dose: 0.25 mg/kg/injection, schedule: Q#A X014 (ip), vehicle: carboxymethylcellulose (CMC)
  T/C: 61 % of control
dose: 0.5 mg/kg/injection, schedule: Q#A X014 (ip), vehicle: carboxymethylcellulose (CMC)
  T/C: 35 % of control
dose: 0.57 mg/kg/injection, schedule: Q#A X014 (ip), vehicle: carboxymethylcellulose (CMC)
  T/C: 65 % of control
dose: 0.92 mg/kg/injection, schedule: Q01DX007 (ip), vehicle: carboxymethylcellulose (CMC)
  T/C: 33 % of control
dose: 1.0 mg/kg/injection, schedule: Q#A X014 (ip), vehicle: carboxymethylcellulose (CMC)
  T/C: 25 % of control
dose: 1.15 mg/kg/injection, schedule: Q01DX007 (ip), vehicle: carboxymethylcellulose (CMC)
  T/C: 39 % of control
dose: 1.15 mg/kg/injection, schedule: Q#A X014 (ip), vehicle: carboxymethylcellulose (CMC)
  T/C: 7 % of control
dose: 1.53 mg/kg/injection, schedule: Q01DX007 (ip), vehicle: carboxymethylcellulose (CMC)
  T/C: 30 % of control
dose: 2.1 mg/kg/injection, schedule: Q01DX007 (ip), vehicle: carboxymethylcellulose (CMC)
  T/C: 11 % of control and 12 % of control
dose: 2.3 mg/kg/injection, schedule: Q01DX007 (ip), vehicle: carboxymethylcellulose (CMC)
  T/C: 14 % of control
dose: 2.3 mg/kg/injection, schedule: Q#A X014 (ip), vehicle: carboxymethylcellulose (CMC)
  T/C: 3 % of control
dose: 4.2 mg/kg/injection, schedule: Q01DX007 (ip), vehicle: carboxymethylcellulose (CMC)
  T/C: 3 % of control and 7 % of control
dose: 4.6 mg/kg/injection, schedule: Q#A X014 (ip), vehicle: carboxymethylcellulose (CMC)
  T/C: 4 % of control
dose: 6.3 mg/kg/injection, schedule: Q01DX007 (ip), vehicle: carboxymethylcellulose (CMC)
  T/C: 2 % of control and 5 % of control

## CC(NC(=O)C1(N)CCCC1)C(=O)O (configuration not stated)
dose: 25.0 mg/kg/injection, schedule: Q01DX007 (ip), vehicle: carboxymethylcellulose (CMC)
  T/C: 91 % of control
dose: 100.0 mg/kg/injection, schedule: Q01DX007 (ip), vehicle: carboxymethylcellulose (CMC)
  T/C: 21 % of control
dose: 222.0 mg/kg/injection, schedule: Q01DX007 (ip), vehicle: steriod suspending solution
  T/C: 36 % of control
dose: 333.0 mg/kg/injection, schedule: Q01DX007 (ip), vehicle: steriod suspending solution
  T/C: 25 % of control

## O=C(Nc1ccc(C2=NCCN2)cc1)c1ccc(C(=O)Nc2ccc(C3=NCCN3)cc2)c(Cl)c1
[1]
  T/C: 88 % of control
dose: 20.0 mg/kg/injection, schedule: Q01DX007 (ip), vehicle: water
  T/C: 110 % of control
dose: 37.0 mg/kg/injection, schedule: Q01DX007 (ip), vehicle: carboxymethylcellulose (CMC)
  T/C: 96 % of control
dose: 40.0 mg/kg/injection, schedule: Q01DX007 (ip), vehicle: water
  T/C: 117 % of control

## CCOC(=O)C(N)Cc1ccc(N(CCCl)CCCl)cc1 (configuration not stated)
dose: 1.4 mg/kg/injection, schedule: Q01DX007 (ip), vehicle: saline
  T/C: 41 % of control
dose: 2.7 mg/kg/injection, schedule: Q01DX007 (ip), vehicle: saline
  T/C: 93 % of control
dose: 4.1 mg/kg/injection, schedule: Q01DX007 (ip), vehicle: saline
  T/C: 9 % of control
dose: 5.0 mg/kg/injection, schedule: Q01DX007 (ip), vehicle: carboxymethylcellulose (CMC)
  T/C: 90 % of control
dose: 5.5 mg/kg/injection, schedule: Q01DX007 (ip), vehicle: saline
  T/C: 32 % of control and 49 % of control
dose: 8.0 mg/kg/injection, schedule: Q01DX007 (ip), vehicle: carboxymethylcellulose (CMC)
  T/C: 83 % of control
dose: 8.3 mg/kg/injection, schedule: Q01DX007 (ip), vehicle: saline
  T/C: 15 % of control and 20 % of control
dose: 12.0 mg/kg/injection, schedule: Q01DX007 (ip), vehicle: carboxymethylcellulose (CMC)
  T/C: 59 % of control
dose: 12.5 mg/kg/injection, schedule: Q01DX007 (ip), vehicle: saline
  T/C: 7 % of control
[1]
  T/C: 29 % of control and 42 % of control
dose: 27.0 mg/kg/injection, schedule: Q01DX007 (ip), vehicle: carboxymethylcellulose (CMC)
  T/C: 15 % of control
